Measurements taken from patent US9737583B2, “Composition for prevention or treatment of acute renal failure including herbal extract or fraction thereof as active ingredient” (KOREA INSTITUTE OF ORIENTAL MEDICINE, priority 2012, dated 2017).

Experiments:
Format in all cases: cell-based
renal cells [1] = assay: Measurement of ROS generation (DCF-DA); conditions: single treatment, after 24 hours; based on 100% ROS generation of the control group; FIGS. 4a to 4e
Method: In order to measure antioxidant effect of the Amomi Rotundus Fructus extract and the fraction thereof in renal cells, ROS generation test was performed. First, renal cells were seeded at a density of 1×10^5 cells per well of 96-well plate. After 24 hours, the cells were pre-treated with 100 μg of the Amomi Rotundus Fructus extract. 2 hours after treatment, cisplatin was treated at a final concentration of 25 μg/ml, followed by culture for 24 hours. DCF-DA dissolved in PBS was treated in the dark according to the treatment concentration of DCF-DA and the reaction time which were determined by historical data and preliminary experiment, and reaction was allowed for 5 hours under basic culture conditions. At the time point of 0, 4, 8, 12, 16, 20, 24 hr, end-point fluorescence wavelength at Ex: 485 nm and Em: 528 nm was measured at S=50.

p53 = assay: Examination of p53 expression pattern (western blot); conditions: single treatment of cisplatin; FIG. 6
Method: Cells treated with Amomi Rotundus Fructus extract and/or cisplatin were harvested, and RIPA buffer was added thereto, followed by sonication for cell lysis. Centrifugation was performed at 15,000 rpm for 15 minutes, and the supernatant was obtained, and subjected to protein quantification by BCA assay. The protein was loaded at an amount of 20 μg/10 μl in each well, and 12% SDS-PAGE polyacrylamide gel electrophoresis was performed, and transferred to a nitrocellulose membrane. The membrane was blocked with 5% Skim milk-TBST, and then treated with primary antibody (anti-p53/dilution-1:300). p53 was detected with HRP conjugated anti-mouse IgG (dilution-1:5000) and immune reaction was visualized by ECL. The measurement results are shown as Mean±S.E.M. (standard error of mean) in FIG. 6. Data of the experimental results were analyzed using Microsoft Excel program, and post-test analysis using Bonferroni multiple comparison test was performed to investigate the differences between the groups. p<0.001 was considered statistically significant, and expressed as *; p<0.001 to compare with cisplatin.

renal cells [2] = assay: MTT assay, cell viability of renal cells with or without cisplatin
Method: To measure cell viability of renal cells by the Amomi Rotundus Fructus extract and the fraction thereof, MTT assay was performed. First, renal cells were seeded at a density of 1×10^4 cells per well of 96-well plate. After 24 hours, the cells were treated with each 50 μg thereof which was prepared by dilution at three final concentrations (50, 100, 200 μg/ml). After 2 hours, cisplatin was treated at a final concentration of 25 μg/ml, and cells were cultured for 24 hours. After 24 hours, 10 μl of the assay reagent of EZ-Cytox Cell Viability assay kit was added to each well using a Micro multi Pipette, taking care to introduce no bubbles, and reaction was allowed for 4 hours under basic culture conditions. Absorbance at 450 nm was measured. p<0.005 was considered statistically significant.

renal cells [3] = assay: Measurement of GSH content; conditions: single treatment of cisplatin, culture 24 hours; FIGS. 5a to 5e
Method: Because GSH level is known as an index to evaluate a cell-protecting effect on drug-induced cellular injury, GSH level was measured to examine the cell-protecting effect of the Amomi Rotundus Fructus extract or the fraction thereof against cisplatin. The GSH levels were determined by monochlorobimane, and experiments for measuring GSH content were performed using the kidney tissues with reference to the conventional method of Fernandez-Checa and Kaplowitz. The number of cells, in which GSH is detectable, was determined by historical data and preliminary experiment, and 2×10^6 cells were seeded to each well of culture plate. After culture for 24 hours, the dilution fold of the final concentration of the drug determined as an active drug was considered and calculated, based on the results of MTT Assay and crystal violet Assay. […] Centrifugation was carried out at 10,000 rpm for 15 minutes, and then the supernatant was collected and used for BCA protein quantification. […] End-point fluorescence wavelength at Ex: 360 nm and Em: 460 nm was measured at S=70. Data of the experimental results were analyzed using Microsoft Excel program, and post-test analysis using Bonferroni multiple comparison test was performed to investigate the differences between the groups. p<0.001 was considered statistically significant.

N.N.[Cl][Pt][Cl] [cisplatin, cis-diaminedichloroplatinum II]
ROS generation (renal cells [1]): ≥ 170% | p53 expression level (p53): remarkably increased | cell viability (renal cells [2]; pre-treatment 50, 100, 200 μg/ml, cisplatin 25 μg/ml after 2 hours, culture 24 hours, based on 100% cell viability of the control group, FIGS. 2a to 2e): remarkably reduced | cell activity (renal cells [2]; single treatment, based on 100% cell activity of the control group, FIGS. 3a to 3e): ≤ 40% | GSH content (renal cells [3]): reduced
